In the supplement of paper PMC9663587:

Assays:
[1] = compound: CC(=O)c1c(C)c2cnc(Nc3ccc(N4CCNCC4)cn3)nc2n(C2CCCC2)c1=O; experiment: increase in dead-cell fraction, 72 h; higher = more death;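 note: breast cancer cell lines in 384-well plates, stained with Hoechst plus LIVE/DEAD far red dye and imaged, cells above an LDR intensity threshold counted dead, Hoechst-negative corpses included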
[2] = compound: CCc1cnn2c(NCc3ccc[n+]([O-])c3)cc(N3CCCC[C@H]3CCO)nc12; experiment: as above
[3] = compound: CCN1CCN(Cc2ccc(Nc3ncc(F)c(-c4cc(F)c5nc(C)n(C(C)C)c5c4)n3)nc2)CC1; experiment: as above
[4] = compound: CCOc1cc2ncc(C#N)c(Nc3ccc(OCc4ccccn4)c(Cl)c3)c2cc1NC(=O)/C=C/CN(C)C [Neratinib/HKI272]; experiment: as above
[5] = compound: CC(=O)c1c(C)c2cnc(Nc3ccc(N4CCN(CCOCCOCCOCCNC(=O)COc5cccc6c5C(=O)N(C5CCC(=O)NC5=O)C6=O)CC4)cn3)nc2n(C2CCCC2)c1=O [BSJ-03-123]; experiment: as above
[6] = compound: CN(C)C(=O)c1cc2cnc(Nc3ccc(N4CCNCC4)cn3)nc2n1C1CCCC1 [LEE011/Ribociclib]; experiment: as above
[7] = compound: CN1CC[C@H](c2c(O)cc(O)c3c(=O)cc(-c4ccccc4Cl)oc23)[C@H](O)C1 [Flavopiridol]; experiment: as above
[8] = compound: CN(C)C/C=C/C(=O)Nc1ccc(C(=O)Nc2cccc(Nc3ncc(Cl)c(-c4c[nH]c5ccccc45)n3)c2)cc1 [THZ1]; experiment: as above
[9] = compound: COc1ccc2c(c1)[C@]1(C[C@H]1c1ccc3c(/C=C/c4ccc(CN5C[C@@H](C)O[C@@H](C)C5)cc4)n[nH]c3c1)C(=O)N2
[10] = compound: O=C(CCCCCCC(=O)Nc1ccccc1)NO [Vorinostat]
[11] = compound: CNC(=O)c1cccc(-c2ccc3c(N4CCOC[C@@H]4C)nc(N4CCOC[C@@H]4C)nc3n2)c1 [AZD2014]
[12] = compound: C[C@@H]1COCCN1c1cc(C2([S@](C)(=N)=O)CC2)nc(-c2cc[nH]c3nccc2-3)n1 [AZD6738]
[13] = compound: CCN1CCN(Cc2ccc(Nc3ncc(F)c(-c4cc(F)c5nc(C)n(C(C)C)c5c4)n3)nc2)CC1
[14] = compound: CN(C)C/C=C/C(=O)Nc1ccc(O[C@@H]2CCC[C@@H](Nc3ncc(Cl)c(-c4c[nH]c5ccccc45)n3)C2)cc1 [BSJ-01-175]
[15] = compound: CC(C)NC[C@@H](C(=O)N1CCN(c2ncnc3c2[C@H](C)C[C@H]3O)CC1)c1ccc(Cl)cc1 [Ipatasertib/GDC0068]
[16] = compound: CCC1=CN=CN=C1N2CCN(CC2)CC3=NC4=C(N3)C=C(C=C4)C(F)(F)F
[17] = compound: O=C1NC(=O)[C@@H](c2cn3c4c(cccc24)CCC3)[C@@H]1c1c[nH]c2ccccc12 [Tivantinib/ARQ197]
[18] = compound: CC(=O)Nc1cccc(-n2c(=O)n(C3CC3)c(=O)c3c(Nc4ccc(I)cc4F)n(C)c(=O)c(C)c32)c1
[19] = compound: NC(=O)Nc1cc(-c2cccc(F)c2)sc1C(=O)N[C@H]1CCCNC1 [AZD7762]
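Throughout, for GR50, 72 h: breast cancer and non-malignant breast epithelial cell lines, Deep Dye Drop or Dye Drop imaging, nine half-log doses, GR normalized to time-zero plates and DMSO-only controls.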

ZR7530
increase in dead-cell fraction ([1]; 0.0003162 µM): 0.0003
increase in dead-cell fraction ([1]; 0.001 µM): -0.0021
increase in dead-cell fraction ([1]; 0.003162 µM): 0.0019
increase in dead-cell fraction ([1]; 0.01 µM): -0.0031
increase in dead-cell fraction ([1]; 0.03162 µM): 0.0102
increase in dead-cell fraction ([1]; 0.1 µM): 0.0763
increase in dead-cell fraction ([1]; 0.3162 µM): 0.0662
increase in dead-cell fraction ([1]; 1 µM): 0.0375
increase in dead-cell fraction ([1]; 3.162 µM): 0.0348
increase in dead-cell fraction ([2]; 0.0001 µM): -0.0019
increase in dead-cell fraction ([2]; 0.0003162 µM): 0.0016
increase in dead-cell fraction ([2]; 0.001 µM): -0.02
increase in dead-cell fraction ([2]; 0.003162 µM): 0.0075
increase in dead-cell fraction ([2]; 0.01 µM): -0.0026
increase in dead-cell fraction ([2]; 0.03162 µM): 0.0388
increase in dead-cell fraction ([2]; 0.1 µM): 0.103
increase in dead-cell fraction ([2]; 0.3162 µM): 0.138
increase in dead-cell fraction ([2]; 1 µM): 0.131
increase in dead-cell fraction ([3]; 0.001 µM): 0.0055
increase in dead-cell fraction ([3]; 0.003162 µM): -0.0075
increase in dead-cell fraction ([3]; 0.01 µM): 0.0272
increase in dead-cell fraction ([3]; 0.03162 µM): 0.0826
increase in dead-cell fraction ([3]; 0.1 µM): 0.0398
increase in dead-cell fraction ([3]; 0.3162 µM): 0.0332
increase in dead-cell fraction ([3]; 1 µM): 0.0706
increase in dead-cell fraction ([3]; 3.162 µM): 0.0448
increase in dead-cell fraction ([3]; 10 µM): 0.0361
increase in dead-cell fraction ([4]; 0.0003162 µM): 0.0037
increase in dead-cell fraction ([4]; 0.001 µM): -0.0057
increase in dead-cell fraction ([4]; 0.003162 µM): -0.0122
increase in dead-cell fraction ([4]; 0.01 µM): -0.0066
increase in dead-cell fraction ([4]; 0.03162 µM): 0.0011
increase in dead-cell fraction ([4]; 0.1 µM): 0.0186
increase in dead-cell fraction ([4]; 0.3162 µM): 0.0145
increase in dead-cell fraction ([4]; 1 µM): 0.025
increase in dead-cell fraction ([4]; 3.162 µM): 0.0495
increase in dead-cell fraction ([5]; 0.001 µM): 0.0025
increase in dead-cell fraction ([5]; 0.003162 µM): 0.0062
increase in dead-cell fraction ([5]; 0.01 µM): 0.0113
increase in dead-cell fraction ([5]; 0.03162 µM): 0.0285
increase in dead-cell fraction ([5]; 0.1 µM): 0.002
increase in dead-cell fraction ([5]; 0.3162 µM): 0.0395
increase in dead-cell fraction ([5]; 1 µM): 0.0336
increase in dead-cell fraction ([5]; 3.162 µM): 0.0895
increase in dead-cell fraction ([5]; 10 µM): 0.039
increase in dead-cell fraction ([6]; 0.001 µM): 0.0122
increase in dead-cell fraction ([6]; 0.003162 µM): 0.0504
increase in dead-cell fraction ([6]; 0.01 µM): 0.0152
increase in dead-cell fraction ([6]; 0.03162 µM): 0.0426
increase in dead-cell fraction ([6]; 0.1 µM): 0.0177
increase in dead-cell fraction ([6]; 0.3162 µM): 0.0519
increase in dead-cell fraction ([6]; 1 µM): 0.0531
increase in dead-cell fraction ([6]; 3.162 µM): 0.0382
increase in dead-cell fraction ([6]; 10 µM): 0.0703
increase in dead-cell fraction ([7]; 0.0001 µM): -0.0012
increase in dead-cell fraction ([7]; 0.0003162 µM): 0.0085
increase in dead-cell fraction ([7]; 0.001 µM): -0.0127
increase in dead-cell fraction ([7]; 0.003162 µM): -0.0029
increase in dead-cell fraction ([7]; 0.01 µM): 0.0104
increase in dead-cell fraction ([7]; 0.03162 µM): 0.0159
increase in dead-cell fraction ([7]; 0.1 µM): 0.0202
increase in dead-cell fraction ([7]; 0.3162 µM): -0.0023
increase in dead-cell fraction ([7]; 1 µM): 0.191
increase in dead-cell fraction ([8]; 0.0001 µM): 0.0034
increase in dead-cell fraction ([8]; 0.0003162 µM): 0.0045
increase in dead-cell fraction ([8]; 0.001 µM): 0
increase in dead-cell fraction ([8]; 0.003162 µM): -0.0128
increase in dead-cell fraction ([8]; 0.01 µM): 0.0019
increase in dead-cell fraction ([8]; 0.03162 µM): 0.0253
increase in dead-cell fraction ([8]; 0.1 µM): 0.0921
increase in dead-cell fraction ([8]; 0.3162 µM): 0.097
increase in dead-cell fraction ([8]; 1 µM): 0.229
GR50, 72 h [9]: 0.00327 µM
GR50, 72 h [10]: 0.844 µM
GR50, 72 h [11]: 0.00146 µM
GR50, 72 h [12]: > 10 µM
GR50, 72 h [13]: 0.00886 µM
GR50, 72 h [14]: 0.0237 µM
GR50, 72 h [15]: 2.4 µM
GR50, 72 h [16]: 5.13 µM
GR50, 72 h [17]: 0.554 µM
GR50, 72 h [18]: 0.0361 µM
GR50, 72 h [19]: 1.12 µM

HCC1143
increase in dead-cell fraction ([1]; 0.0003162 µM): 0.0048
increase in dead-cell fraction ([1]; 0.001 µM): 0.0021
increase in dead-cell fraction ([1]; 0.003162 µM): -0.0047
increase in dead-cell fraction ([1]; 0.01 µM): -0.0052
increase in dead-cell fraction ([1]; 0.03162 µM): -0.0059
increase in dead-cell fraction ([1]; 0.1 µM): -0.0023
increase in dead-cell fraction ([1]; 0.3162 µM): -0.0052
increase in dead-cell fraction ([1]; 1 µM): -0.0085
increase in dead-cell fraction ([1]; 3.162 µM): 0.0036
increase in dead-cell fraction ([2]; 0.0001 µM): -0.0025
increase in dead-cell fraction ([2]; 0.0003162 µM): -0.0033
increase in dead-cell fraction ([2]; 0.001 µM): 0.0002
increase in dead-cell fraction ([2]; 0.003162 µM): -0.0039
increase in dead-cell fraction ([2]; 0.01 µM): 0.006
increase in dead-cell fraction ([2]; 0.03162 µM): 0.248
increase in dead-cell fraction ([2]; 0.1 µM): 0.258
increase in dead-cell fraction ([2]; 0.3162 µM): 0.254
increase in dead-cell fraction ([2]; 1 µM): 0.239
increase in dead-cell fraction ([3]; 0.001 µM): -0.0049
increase in dead-cell fraction ([3]; 0.003162 µM): -0.0032
increase in dead-cell fraction ([3]; 0.01 µM): -0.0047
increase in dead-cell fraction ([3]; 0.03162 µM): 0.0015
increase in dead-cell fraction ([3]; 0.1 µM): -0.003
increase in dead-cell fraction ([3]; 0.3162 µM): -0.0023
increase in dead-cell fraction ([3]; 1 µM): 0.0074
increase in dead-cell fraction ([3]; 3.162 µM): 0.0254
increase in dead-cell fraction ([3]; 10 µM): 0.124
increase in dead-cell fraction ([4]; 0.0003162 µM): 0.003
increase in dead-cell fraction ([4]; 0.001 µM): 0.0005
increase in dead-cell fraction ([4]; 0.003162 µM): 0.006
increase in dead-cell fraction ([4]; 0.01 µM): 0.0143
increase in dead-cell fraction ([4]; 0.03162 µM): 0.0116
increase in dead-cell fraction ([4]; 0.1 µM): 0.0306
increase in dead-cell fraction ([4]; 0.3162 µM): 0.0437
increase in dead-cell fraction ([4]; 1 µM): 0.0748
increase in dead-cell fraction ([4]; 3.162 µM): 0.261
increase in dead-cell fraction ([5]; 0.001 µM): 0.0033
increase in dead-cell fraction ([5]; 0.003162 µM): 0.0019
increase in dead-cell fraction ([5]; 0.01 µM): -0.0022
increase in dead-cell fraction ([5]; 0.03162 µM): -0.0018
increase in dead-cell fraction ([5]; 0.1 µM): 0.0104
increase in dead-cell fraction ([5]; 0.3162 µM): 0.011
increase in dead-cell fraction ([5]; 1 µM): 0.0065
increase in dead-cell fraction ([5]; 3.162 µM): 0.0186
increase in dead-cell fraction ([5]; 10 µM): 0.102
increase in dead-cell fraction ([6]; 0.001 µM): -0.0077
increase in dead-cell fraction ([6]; 0.003162 µM): 0.0012
increase in dead-cell fraction ([6]; 0.01 µM): 0
increase in dead-cell fraction ([6]; 0.03162 µM): 0.001
increase in dead-cell fraction ([6]; 0.1 µM): 0.0077
increase in dead-cell fraction ([6]; 0.3162 µM): 0.0065
increase in dead-cell fraction ([6]; 1 µM): 0.0007
increase in dead-cell fraction ([6]; 3.162 µM): 0.009
increase in dead-cell fraction ([6]; 10 µM): 0.0365
increase in dead-cell fraction ([7]; 0.0001 µM): -0.0098
increase in dead-cell fraction ([7]; 0.0003162 µM): -0.0008
increase in dead-cell fraction ([7]; 0.001 µM): -0.0018
increase in dead-cell fraction ([7]; 0.003162 µM): 0.0048
increase in dead-cell fraction ([7]; 0.01 µM): 0.0022
increase in dead-cell fraction ([7]; 0.03162 µM): -0.0053
increase in dead-cell fraction ([7]; 0.1 µM): 0.0185
increase in dead-cell fraction ([7]; 0.3162 µM): 0.0656
increase in dead-cell fraction ([7]; 1 µM): 0.228
increase in dead-cell fraction ([8]; 0.0001 µM): -0.0073
increase in dead-cell fraction ([8]; 0.0003162 µM): -0.0031
increase in dead-cell fraction ([8]; 0.001 µM): -0.0053
increase in dead-cell fraction ([8]; 0.003162 µM): -0.0066
increase in dead-cell fraction ([8]; 0.01 µM): 0.0051
increase in dead-cell fraction ([8]; 0.03162 µM): 0.0382
increase in dead-cell fraction ([8]; 0.1 µM): 0.162
increase in dead-cell fraction ([8]; 0.3162 µM): 0.192
increase in dead-cell fraction ([8]; 1 µM): 0.165
GR50, 72 h [9]: 0.00523 µM
GR50, 72 h [10]: 0.91 µM
GR50, 72 h [11]: 0.413 µM
GR50, 72 h [12]: 5.13 µM
GR50, 72 h [13]: 0.0703 µM
GR50, 72 h [14]: 0.0506 µM
GR50, 72 h [15]: > 10 µM
GR50, 72 h [16]: > 10 µM
GR50, 72 h [17]: 0.278 µM
GR50, 72 h [18]: 0.00883 µM
GR50, 72 h [19]: 0.0557 µM
